We go through four compounds from patent US20140081025A1, “HETEROAROMATIC RING DERIVATIVE” (TAISHO PHARMACEUTICAL CO., LTD., priority 2011, published 2014).

Test [1] addresses T1, human orexin 2 receptor (hOX2R) (Homo sapiens, UniProt O43614).
T1 construct: expressed in transfected cells; host or cells: Chinese hamster ovary (CHO) cells
T1 sequence (O43614 1-444): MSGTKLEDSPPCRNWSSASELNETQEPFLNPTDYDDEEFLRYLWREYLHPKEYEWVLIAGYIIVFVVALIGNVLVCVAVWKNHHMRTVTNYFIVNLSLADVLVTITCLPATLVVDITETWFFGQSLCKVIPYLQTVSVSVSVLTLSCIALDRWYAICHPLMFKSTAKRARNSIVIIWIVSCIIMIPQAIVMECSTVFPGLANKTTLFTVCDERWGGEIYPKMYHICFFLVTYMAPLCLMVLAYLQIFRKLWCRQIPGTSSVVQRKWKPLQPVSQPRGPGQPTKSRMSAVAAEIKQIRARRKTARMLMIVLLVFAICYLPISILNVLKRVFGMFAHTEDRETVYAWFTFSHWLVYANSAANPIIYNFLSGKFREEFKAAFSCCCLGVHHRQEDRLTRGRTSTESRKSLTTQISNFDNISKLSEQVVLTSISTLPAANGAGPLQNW
Put plainly: Measurement of orexin antagonist activity (intracellular Ca2+ fluorescence, FDSS) in CHO cells expressing hOX2R. Format: cell-based. Particulars: CHO cells forcibly expressing hOX2R; ligand (two-amino-acid-substituted human orexin-A) 3 nM; Fluo 4-AM; read-out: IC50 value OX2. As to the method: (§1) The antagonist activity of a test compound against the human orexin 1 receptor (hOX1R) or orexin 2 receptor (hOX2R) was measured by the method described in the document (Toshikatsu Okumura et al., Biochemical and Biophysical Research Communications, 280, 976-981, 2001) with appropriate modification. Chinese hamster ovary (CHO) cells forcibly expressing hOX1R or hOX2R were seeded into each well of a 96-well Black clear bottom plate (Nunc A/S) in the amount of 20000 cells per well and were cultured in a Ham's F-12 medium (Invitrogen, Inc.) containing 0.1 mM MEM non-essential amino acids (Invitrogen, Inc.), 0.5 mg/mL G418 (Invitrogen, Inc.), and 10% fetal calf serum (Invitrogen, Inc.) at 37° C. in 5% CO2 for 16 hours. The medium was removed, and then added to each well was 100 μL of an assay buffer (pH 7.4) containing 0.5 μM Fluo 4-AM ester (Dojindo Laboratories), wherein the buffer was composed of 25 mM HEPES (Dojindo Laboratories), a Hanks' balanced salt solution (Invitrogen, Inc.), 0.1% bovine serum albumin (Sigma-Aldrich Co., LLC.), 2.5 mM probenecid (Sigma-Aldrich Co., LLC.), and 200 μg/mL Amaranth (Sigma-Aldrich Co., LLC.), followed by incubation at 37° C. in 5% CO2 for 60 min. The assay buffer containing Fluo 4-AM ester was removed, and then 150 μL of an assay buffer solution containing 10 mM of the test compound dissolved in dimethyl sulfoxide was added to each well, followed by incubation for 30 min.
(§2) A peptide (Pyr-[…]NH2: Peptide Institute, Inc.), which is a ligand having substitution of two amino acids in human orexin-A, was diluted with an assay buffer to a final concentration of 300 pM for hOX1R and to a final concentration of 3 nM for hOX2R. The reaction was started by adding 50 μL of this ligand solution to each well. The reaction was monitored by measuring the fluorescence of each well at each 1 second for 3 min with a Functional Drug Screening System (FDSS manufactured by Hamamatsu Photonics K.K.), and the antagonist activity was determined based on the maximum fluorescence value as an index of the intracellular Ca^2+ concentration. The antagonist activity of a test compound was calculated by assuming that the fluorescence value of the well containing only a dilution buffer was 100% and that the fluorescence value of the well containing a buffer not containing the ligand or any test compound was 0%. The 50% inhibitory concentration (IC50 value) of a test compound was determined from fluorescence values at various concentrations of the test compound.

Test [2] has as its target T2, human orexin 1 receptor (hOX1R) (Homo sapiens, UniProt O43613).
T2 construct: expressed in transfected cells; host or cells: Chinese hamster ovary (CHO) cells
T2 sequence (O43613 1-425): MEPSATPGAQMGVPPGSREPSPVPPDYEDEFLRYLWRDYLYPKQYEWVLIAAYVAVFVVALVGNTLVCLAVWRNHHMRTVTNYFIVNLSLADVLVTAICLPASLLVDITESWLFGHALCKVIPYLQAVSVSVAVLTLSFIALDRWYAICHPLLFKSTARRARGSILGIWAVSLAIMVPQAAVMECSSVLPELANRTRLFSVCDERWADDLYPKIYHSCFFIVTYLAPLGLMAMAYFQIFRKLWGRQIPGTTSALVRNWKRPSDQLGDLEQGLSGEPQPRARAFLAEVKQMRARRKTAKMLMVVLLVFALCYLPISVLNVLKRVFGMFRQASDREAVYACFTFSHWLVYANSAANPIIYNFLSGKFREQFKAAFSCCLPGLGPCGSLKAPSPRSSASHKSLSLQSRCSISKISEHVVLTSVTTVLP
Put plainly: Measurement of orexin antagonist activity (intracellular Ca2+ fluorescence, FDSS) in CHO cells expressing hOX1R. The settings on record: CHO cells forcibly expressing hOX1R; ligand (two-amino-acid-substituted human orexin-A) 300 pM; Fluo 4-AM; read-out: IC50 value OX1. Type of test: cell-based. As to the method: as §1, §2

Broadly, the IC50 is the concentration that gives 50% inhibition.

Each structure is given as a SMILES string.

With `CN(CCc1ccn(-c2ccc(F)cn2)n1)C(=O)c1ccccc1-n1nccn1` [Example 14, N-{2-[1-(5-Fluoropyridin-2-yl)-1H-pyrazol-3-yl]ethyl}-N-methyl-2-(2H-1,2,3-triazol-2-yl)benzamide], the half-inhibitory concentration (IC50) is 132 nM in test [1] and 10 nM in test [2].
Taken in the same sequence, the figures for `CCN(CCc1cn(-c2ccc(F)cn2)cn1)C(=O)c1cc(C)ccc1-n1nccn1` [Example 13, N-Ethyl-N-{2-[1-(5-fluoropyridin-2-yl)-1H-imidazol-4-yl]ethyl}-5-methyl-2-(2H-1,2,3-triazol-2-yl)benzamide] were 3.4 nM and 8.9 nM.
As to `CCN(CCc1ccn(-c2ccc(F)cc2)n1)C(=O)c1cc(F)ccc1-c1ncccn1` [Example 27, N-ethyl-5-fluoro-N-{2-[1-(4-fluorophenyl)-1H-pyrazol-3-yl]ethyl}-2-(pyrimidin-2-yl) benzamide], the IC50 is 18.4 nM in test [1] and 1.1 nM in test [2].
Taken in the same sequence, the figures for `CCN(CCc1ccn(-c2cccc(C)n2)n1)C(=O)c1ccccc1-n1nccn1` [Example 23, N-ethyl-N-{2-[1-(6-methylpyridin-2-yl)-1H-pyrazol-3-yl]ethyl}-2-(2H-1,2,3-triazol-2-yl) benzamide] were 10.3 nM and 3 nM.
